In PubChem BioAssay (NCI):
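Interpolation was linear, between the two tested concentrations surrounding the appropriate level; five concentrations were tested over 48 hours in 96-well plates. GI50 is the concentration that inhibits growth by half. TGI: total growth inhibition.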

What was measured:
Assay in all cases: NCI tumour cell line growth inhibition, 48 h
HL-60(TB) leukemia = test system: HL-60(TB) leukemia
MOLT-4 leukemia = test system: MOLT-4 leukemia
CCRF-CEM leukemia = test system: CCRF-CEM leukemia
UACC-62 melanoma = test system: UACC-62 melanoma
NCI-H460 lung = test system: NCI-H460 lung
NCI-H23 lung = test system: NCI-H23 lung
OVCAR-8 ovarian = test system: OVCAR-8 ovarian
MCF7 breast = test system: MCF7 breast
HCT-116 colon = test system: HCT-116 colon
OVCAR-4 ovarian = test system: OVCAR-4 ovarian
EKVX NSCLC = test system: EKVX NSCLC
OVCAR-3 ovarian = test system: OVCAR-3 ovarian
KM12 colon = test system: KM12 colon
SK-OV-3 ovarian = test system: SK-OV-3 ovarian
NCI-H522 lung = test system: NCI-H522 lung
UACC-257 melanoma = test system: UACC-257 melanoma
SK-MEL-5 melanoma = test system: SK-MEL-5 melanoma
K-562 leukemia = test system: K-562 leukemia
HT29 colon = test system: HT29 colon

| Structure (SMILES) | TGI (HL-60(TB) leukemia) | TGI (MOLT-4 leukemia) | TGI (CCRF-CEM leukemia) | TGI (UACC-62 melanoma) | TGI (NCI-H460 lung) | TGI (NCI-H23 lung) | TGI (OVCAR-8 ovarian) | TGI (MCF7 breast) | TGI (HCT-116 colon) | TGI (OVCAR-4 ovarian) | TGI (EKVX NSCLC) | TGI (OVCAR-3 ovarian) | TGI (KM12 colon) | TGI (SK-OV-3 ovarian) | TGI (NCI-H522 lung) | TGI (UACC-257 melanoma) | TGI (SK-MEL-5 melanoma) | TGI (K-562 leukemia) | TGI (HT29 colon) | GI50 (MCF7 breast) |
| --- | --- | --- | --- | --- | --- | --- | --- | --- | --- | --- | --- | --- | --- | --- | --- | --- | --- | --- | --- | --- |
| C/C=C(/C)C(=O)O[C@@H]1c2c(C)coc2C[C@H]2CC[C@H](O)[C@H](C)[C@]21C | 87 µM | > 100 µM | > 100 µM | > 100 µM | > 100 µM | > 100 µM | > 100 µM | 87.8 µM | > 100 µM | > 100 µM | > 100 µM | 70.6 µM | > 100 µM | > 100 µM | > 100 µM | > 100 µM | > 100 µM | > 100 µM | > 100 µM |  |
| [Cl-].[Rh+3].c1ccc(-c2ccnc3c2ccc2c(-c4ccccc4)ccnc23)cc1.c1ccc(-c2ccnc3c2ccc2c(-c4ccccc4)ccnc23)cc1.c1ccc(-c2ccnc3c2ccc2c(-c4ccccc4)ccnc23)cc1 | 60.3 µM | > 100 µM | > 100 µM | > 100 µM | > 100 µM | > 100 µM | > 100 µM | > 100 µM | > 100 µM | > 100 µM | > 91.7 µM | > 100 µM | 19.7 µM | > 100 µM | > 85.1 µM | > 100 µM | 50.3 µM | > 78.4 µM | 73.7 µM | 71.3 µM |
| O=[N+]([O-])c1ccc(/C=C/c2ccc(N=Nc3ccc(/C=C/c4ccc([N+](=O)[O-])cc4S(=O)(=O)O)c(S(=O)(=O)O)c3)cc2S(=O)(=O)O)c(S(=O)(=O)O)c1 | > 100 µM | > 100 µM | > 100 µM | > 100 µM | > 100 µM | > 100 µM | > 100 µM | > 100 µM | > 100 µM | > 100 µM | > 100 µM | > 100 µM | > 100 µM | > 100 µM | > 100 µM | > 100 µM | > 100 µM | > 100 µM | > 100 µM |  |
